Patent US20110144565A1, “COMBINATION OF A TILIROSIDE AND A PEPTIDE” (LABORATOIRES CLARINS, priority 2008, published 2011)

System: collagen type I synthesis in normal adult human fibroblasts
Test: Immunolocalization of collagen type I in normal adult human fibroblasts (immunofluorescence, image analysis)
Format: cell-based
Settings: 2×10^−3% palmitoyl lysine-valine-5 diaminohydroxybutyrate (P1), 72 hours, Anova
Description: The fibroblasts were seeded into 6-well plates with a glass coverslip in a proportion of 70 000 cells per dish, in MEM (Minimum Essential Medium). […] Each cell layer was then rinsed and fixed with methanol (−20° C.) before visualizing the collagen type I by immunofluorescence. […] The incubation time between each antibody is 1 hour. The cell nuclei are visualized by means of Dapi labeling. The coverslips are mounted on glass slides and then observed under a fluorescence microscope (Nikon Eclipse 50i). Photographs are taken of several fields of the cell population. The TRITC fluorescence images indicate the regions of localization of collagen type I. The DAPI fluorescence images indicate the cell nuclei and therefore the number of cells per field. The photographic images are analyzed using the Lucia image analysis software. The intensity of collagen labeling was observed on 14 and 15 photographic images according to the conditions. This fluorescence intensity is related to the number of cells per image. The differences in mean between the populations were studied by analysis of variance (Anova). This method uses measurements of variance in order to determine the significant or nonsignificant nature of the differences in mean measured on the populations.

Substance: palmitoyl lysine-valine-5 diaminohydroxybutyrate
- collagen type I labeling (fluorescence intensity related to the number of cells) compared with the nontreated control: statistically significant (p<0.0001) increase in collagen
